Reference: ChEMBL document CHEMBL5614419, “Discovery of novel BCL6-Targeting PROTACs with effective antitumor activities against DLBCL in vitro and in vivo” (Eur J Med Chem, 2024)
The source made the active and inactive calls. The calls are words filed in the database; no cut-off is given here.

Experiments:
[1] = target: T1, Protein cereblon/B-cell lymphoma 6 protein (Homo sapiens, UniProt Q96SW2+P41182); experiment: In vivo PROTAC activity at CRBN/BCL6 in female nude nu/nu mouse model xenografted with human SU-DHL-4 cells assessed as downregulation of BCL6 protein level in tumor at 40 mg/kg, ip measured after 5 hrs of last dose by Western blot analysis; type: functional, organism-based; settings: SUD4
[2] = target: T1, Protein cereblon/B-cell lymphoma 6 protein; experiment: PROTAC activity at CRBN/BCL6 in BCL6-dependent human SU-DHL-4 cells assessed as induction of BCL6 degradation by measuring degradation rate at 1 uM incubated for 48 hrs by Western blot analysis relative to control; type: cell-based
[3] = target: T1, Protein cereblon/B-cell lymphoma 6 protein; experiment: PROTAC activity at CRBN/BCL6 in BCL6-dependent human SU-DHL-4 cells assessed as induction of BCL6 degradation by measuring degradation rate at 10 uM incubated for 48 hrs by Western blot analysis relative to control; type: cell-based
DOHH-2 = experiment: Antiproliferative activity against BCL6-dependent human DOHH-2 cells assessed as inhibition in cell growth measured after 6 days by MTS assay; settings: DOHH-2, 144 h
SUD4 [4] = experiment: Antiproliferative activity against BCL6-dependent human SU-DHL-4 cells assessed as inhibition in cell growth measured after 6 days by MTT assay; settings: SU-DHL-4, 144 h
SU-DHL-6 = experiment: Antiproliferative activity against BCL6-dependent human SU-DHL-6 cells assessed as inhibition in cell growth measured after 6 days by MTT assay; settings: SU-DHL-6, 144 h
OCI-Ly1 = experiment: Antiproliferative activity against BCL6-dependent human OCI-Ly1 cells assessed as inhibition in cell growth measured after 6 days by MTT assay; settings: OCI-Ly1, 144 h
[5] = (§1) Cytotoxicity against HEK293T cells assessed as inhibition in cell growth measured after 6 days by MTT assay; type: toxicity, cell-based, HEK-293T; settings: human, HEK293T cells
HEK-293T = experiment: as §1; type: toxicity, cell-based; settings: human, hek-293t, 144 h; time 6 day
[6] = Cmax in male Sprague-Dawley rat at 10 mg/kg, ip measured upto 24 hrs by LC-MS/MS analysis; type: ADME, organism-based; settings: in vivo
[7] = Cmax in male Sprague-Dawley rat at 20 mg/kg, po measured upto 24 hrs by LC-MS/MS analysis; type: ADME, organism-based; settings: in vivo
[8] = Tmax in male Sprague-Dawley rat at 20 mg/kg, po measured upto 24 hrs by LC-MS/MS analysis; type: ADME, organism-based; settings: in vivo
[9] = Half life in male Sprague-Dawley rat at 20 mg/kg, po measured upto 24 hrs by LC-MS/MS analysis; type: ADME, organism-based; settings: in vivo
[10] = AUC (0 to t) in male Sprague-Dawley rat at 10 mg/kg, ip measured upto 24 hrs by LC-MS/MS analysis; type: ADME, organism-based; settings: in vivo
[11] = AUC (0 to t) in male Sprague-Dawley rat at 20 mg/kg, po measured upto 24 hrs by LC-MS/MS analysis; type: ADME, organism-based; settings: in vivo
[12] = AUC (0 to infinity) in male Sprague-Dawley rat at 10 mg/kg, ip measured upto 24 hrs by LC-MS/MS analysis; type: ADME, organism-based; settings: in vivo
[13] = AUC (0 to infinity) in male Sprague-Dawley rat at 20 mg/kg, po measured upto 24 hrs by LC-MS/MS analysis; type: ADME, organism-based; settings: in vivo
[14] = target: T1, Protein cereblon/B-cell lymphoma 6 protein; experiment: PROTAC activity at CRBN/BCL6 in human SU-DHL-4 cells assessed as induction of BCL6 degradation by measuring maximal efficacy incubated for 48 hrs by Western blot analysis relative to control; type: cell-based
[15] = target: T1, Protein cereblon/B-cell lymphoma 6 protein; experiment: PROTAC activity at CRBN/BCL6 in human DOHH-2 cells assessed as induction of BCL6 degradation incubated for 48 hrs by Western blot analysis; type: cell-based
[16] = target: T1, Protein cereblon/B-cell lymphoma 6 protein; experiment: PROTAC activity at CRBN/BCL6 in human DOHH-2 cells assessed as induction of BCL6 degradation by measuring maximal efficacy incubated for 48 hrs by Western blot analysis relative to control; type: cell-based
[17] = target: T1, Protein cereblon/B-cell lymphoma 6 protein; experiment: PROTAC activity at CRBN/BCL6 in human SU-DHL-4 cells assessed as induction of BCL6 degradation at 5 uM preincubated with MG-132 for 2 hrs followed by compound addition and measured after 36 hrs by Western blot analysis; type: cell-based
SUD4 [18] = experiment: Upregulation of CDKN1A mRNA level in human SU-DHL-4 cells at 10 uM incubated for 48 hrs by RT-qPCR analysis; type: functional, cell-based
[19] = target: T1, Protein cereblon/B-cell lymphoma 6 protein; experiment: PROTAC activity at CRBN/BCL6 in human SU-DHL-4 cells assessed as induction of BCL6 degradation by measuring reduction in protein level at 5 uM measured upto 72 hrs by Western blot analysis; type: cell-based
SUD4 [20] = experiment: Upregulation of p21 protein level in human SU-DHL-4 cells at 5 uM preincubated for 48 hrs followed by compound elution and measured after 72 hrs by Western blot analysis; type: functional, cell-based
SUD4 [21] = experiment: Induction of cell cycle arrest in human SU-DHL-4 cells assessed as accumulation of cells at G1 phase incubated for 72 hrs by flow cytometry analysis; type: functional, cell-based; settings: dose 0.1-10 µM
SUD4 [22] = experiment: Induction of cell cycle arrest in human SU-DHL-4 cells assessed as increase in G1 phase cell population at 10 uM measured after 72 hrs by flow cytometry analysis (reference value: 61.4%); type: functional
SUD4 [23] = experiment: Induction of cell cycle arrest in human SU-DHL-4 cells assessed as increase in G1 phase cell population at 1 uM measured after 72 hrs by flow cytometry analysis (reference value: 61.4%); type: functional
[24] = Antitumor activity against human SU-DHL-4 cells xenografted in female nude nu/nu mouse assessed as tumor growth inhibition at 20 mg/kg, ip measured after 21 days by microcaliper based analysis relative to control; type: functional, SUD4; settings: SU-DHL-4, 504 h, time 21 day, read-out: TGI
[25] = Antitumor activity against human SU-DHL-4 cells xenografted in female nude nu/nu mouse assessed as tumor growth inhibition at 40 mg/kg, ip measured after 21 days by microcaliper based analysis relative to control; type: functional, SUD4; settings: SU-DHL-4, 504 h, time 21 day, read-out: TGI
[26] = target: T1, Protein cereblon/B-cell lymphoma 6 protein; experiment: In vivo PROTAC activity at CRBN/BCL6 in female nude nu/nu mouse model xenografted with human SU-DHL-4 cells assessed as increase in p21 protein level in tumor at 40 mg/kg, ip measured after 5 hrs of last dose by Western blot analysis; type: functional, organism-based; settings: SUD4
[27] = target: T1, Protein cereblon/B-cell lymphoma 6 protein; experiment: In vivo PROTAC activity at CRBN/BCL6 in female nude nu/nu mouse model xenografted with human SU-DHL-4 cells assessed as increase in p27 protein level in tumor at 40 mg/kg, ip measured after 5 hrs of last dose by Western blot analysis; type: functional, organism-based; settings: SUD4
[28] = target: T1, Protein cereblon/B-cell lymphoma 6 protein; experiment: PROTAC activity at CRBN/BCL6 in human Ibrutinib resistant DOHH2 cells assessed as induction of BCL6 degradation at 0.1 to 10 uM incubated for 48 hrs by Western blot analysis; type: cell-based; settings: dose 0.1-10 µM
SUD4 [29] = experiment: Upregulation of p27 protein level in human SU-DHL-4 cells at 5 uM by Western blot analysis; type: functional, cell-based; settings: time 12-72 hrs, TDE = time-dependent effect
[30] = test system: Ibrutinib resistant DOHH2 cell; experiment: Upregulation of p21 protein level in human Ibrutinib resistant DOHH2 cells at 0.1 to 10 uM incubated for 48 hrs by Western blot analysis; type: functional, cell-based; settings: dose 0.1-10 µM

T1 sequence (Q96SW2 whole entry, looked up, other chains not shown): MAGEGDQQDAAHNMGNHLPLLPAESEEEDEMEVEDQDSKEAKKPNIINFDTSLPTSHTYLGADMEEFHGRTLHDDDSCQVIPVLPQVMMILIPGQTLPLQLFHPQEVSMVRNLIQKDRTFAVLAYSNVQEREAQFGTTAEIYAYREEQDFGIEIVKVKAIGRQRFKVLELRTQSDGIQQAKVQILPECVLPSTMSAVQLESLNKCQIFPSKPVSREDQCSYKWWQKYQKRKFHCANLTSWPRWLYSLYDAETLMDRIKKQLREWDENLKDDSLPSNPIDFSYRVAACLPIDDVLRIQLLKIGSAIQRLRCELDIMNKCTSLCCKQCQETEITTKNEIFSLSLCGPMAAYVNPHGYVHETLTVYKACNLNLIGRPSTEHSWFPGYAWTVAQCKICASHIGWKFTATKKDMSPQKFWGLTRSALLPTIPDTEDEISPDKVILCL

## COc1cc(Nc2nc(N3CCN(CCOCCNc4cccc5c4C(=O)N(C4CCC(=O)NC4=O)C5=O)CC3)ncc2F)ccc1NC(=O)c1ccc(C2=CCCC2)s1 (stereo not given)
[1]
  Activity: Active
[2]
  Activity: 81.8%
[3]
  Activity: 94.4%
DOHH-2
  IC50: 56.2 nM
SUD4 [4]
  IC50: 399 nM
SU-DHL-6
  IC50: 451 nM
OCI-Ly1
  IC50: 1370 nM
[5]
  IC50 at 6 days: > 10 µM
HEK-293T
  Activity: Dose-Dependent Effect
[6]
  Cmax: 3820 ng/mL
[7]
  Cmax: 703 ng/mL
[8]
  Tmax: 1 h
[9]
  half-life: 63.6 min
[10]
  AUC(0-t) at 24 h: 33800 ng·h/mL
[11]
  AUC(0-t) at 24 h: 2290 ng·h/mL
[12]
  AUC(0-inf): 33900 ng·h/mL
[13]
  AUC(0-inf): 2330 ng·h/mL
[14]
  Emax: 93%
[15]
  Activity: Dose-Dependent Effect
  DC50: 558 nM
[16]
  Emax: 93.7%
[17]
  Activity: inactive
SUD4 [18]
  Activity: Active
[19]
  Activity: Active
SUD4 [20]
  Activity: Active
SUD4 [21]
  Activity: Dose-Dependent Effect
SUD4 [22]
  Activity: 93.3%
SUD4 [23]
  Activity: 86.7%
[24]
  inhibition in vivo at 20 mg/kg: 47.4%
[25]
  inhibition in vivo at 40 mg/kg: 71.8%
[26]
  Activity: Active
[27]
  Activity: Active
[28]
  Activity: Active
SUD4 [29]
  Activity: Tde
[30]
  Activity: Active
